Test results reported in patent US6689767B2, “Triterpenes having antibacterial activity” (Regents of the University of Minnesota, priority 2000, dated 2004).

How the values were obtained:
Staphylococcus aureus [1] = assay: Kirby-Bauer disk diffusion growth inhibition, Staphylococcus aureus; type: cell-based; conditions: for Zone of inhibition (mm) against S. aureus: Example 35; for Zone of inhibition Staphylococcus aureus: 100 μl on 10 mm disk, 18 hours 37° C.; for Active against: Table 1 summary, S. aureus
Description: (§1) The compounds disclosed herein were tested for growth inhibition against four strains of bacteria: Escherichia coli, Staphylococcus aureus, methicillin-resistant Staphylococcus aureus, and Bacillus subtilis. […] They represent […]. E. coli is a gram-negative, non-spore forming, rod-shaped, opportunistic pathogen that resides in the human digestive tract. S. aureus is a gram positive coccus, is usually found morphologically as a […], and is an opportunistic human pathogen, often residing on or in the skin. B. subtilis is a gram positive spore-forming rod. Its native environment is the soil. The chemicals were tested for growth-inhibition of the bacteria by the Kirby-Bauer method. See, e.g., Microbiology, third edition; Lansing M. Prescott, John P. Harley, and Donald A. Klein; Wm. C. Brown Publishers.
(§2) Mueller-Hinton agar (Difco Lab, Michigan) was prepared according to the manufacturer's directions, and 20 ml was dispensed in each sterile petri dish. Sterile nutrient broth (Difco Lab, Michigan) was also prepared according to the manufacturer's directions.
(§3) Bacteria were grown in liquid nutrient broth for 18 hours at 37° C. until they were turbid.
(§4) An aliquot of 0.5 ml of cultured bacteria was aseptically transferred to the surface of a Mueller-Hinton agar plat, and spread using a cotton-tipped swab. Plates were then allowed to dry for 5 minutes. Then a 10 mm diameter filter paper disk impregnated with the test chemical was placed with sterile forceps on the plate. The disks were impregnated with 100 μl of a solution of the test compound in DMSO or in water, at the indicated concentrations in Table 1.
(§5) The zones of inhibition were measured after 18 hours growth at 37° C. Tests were done in triplicate.
(§6) Additional compounds were tested for activity against E. coli, laboratory strain S. aureus (not methicillin resistant), and B. subtilis. The compounds were tested by the disk diffusion method, as in Example 1, with application of a 10 mg/mil solution of the test compound in DMSO.
(§7) Derivatives of lupeol were tested for inhibition of bacterial growth using the Kirby-Bauer disk diffusion method and by growth in liquid culture. For the disk diffusion method, compounds were dissolved in DMSO and 100 μl was added to the 10 mm filter paper disk. The amount of compound applied to the disk varied. The amount applied for each compound was as follows: lupeol (50 μg), lupeol-3-maleate (15 μg), lupeol-3-thiodiglycolate (15 μg), lupeol-3-dimethyl succinate (60 μg), lupeol-3-phosphate (30 μg), lupenone (50 μg), lupenon-3-oxime (50 μg), lupeol-3-amine (50 μg), lupenon-1,2-ene-2-ol (50 μg). In liquid culture, the compounds were dissolved in DMSO at 1 mg/ml and then 100 μl was added to 7 ml of sterile broth, along with a 1/200 dilution of freshly grown bacterial liquid culture.

[2] = tested on: Staphylococcus epidemidis; assay: Kirby-Bauer disk diffusion of lupeol derivatives, Staphylococcus epidermidis; type: cell-based
Description: as §7

Enterococcus faecalis = assay: Kirby-Bauer disk diffusion of lupeol derivatives, Enterococcus faecalis; type: cell-based; conditions: for Active against: Table 1 summary, E. faecalis
Description: as §7

Escherichia coli = assay: Kirby-Bauer disk diffusion growth inhibition, Escherichia coli; type: cell-based; conditions: for Zone of inhibition Escherichia coli: 100 μl on 10 mm disk, 18 hours 37° C.; for sensitivity of E. coli: Example 34, 10 mg/ml in DMSO; for Active against: Table 1 summary, E. coli
Description: as §1, §2, §3, §4, §5, §6

Bacillus subtilis = assay: Kirby-Bauer disk diffusion growth inhibition, Bacillus subtilis; type: cell-based; conditions: for Zone of inhibition Bacillus subtilis: 100 μl on 10 mm disk, 18 hours 37° C.
Description: as §1, §2, §3, §4, §5, §6

bacteria = assay: Summary statements over the antibacterial assays above; type: cell-based; conditions: for active against at least one strain of bacteria in the assays above: summary list; for overall activity in Example 35: S. aureus, S. epidermidis, E. faecalis, disk diffusion and liquid growth
Staphylococcus epidermis = assay: Growth in liquid culture, optical density, S. epidermidis; type: cell-based, Staphylococcus epidermidis; conditions: 600 nm, 24 hours growth, test compound at 14 μg per ml; None = 0.07
Description: as §7

Staphylococcus aureus [3] = assay: Growth in liquid culture, optical density, S. aureus; type: cell-based; conditions: 600 nm, 24 hours growth, test compound at 14 μg per ml; None = 0.08
Description: as §7

Enterococcus faecilis = assay: Growth in liquid culture, optical density, E. faecalis; type: cell-based, Enterococcus faecalis; conditions: 600 nm, 24 hours growth, test compound at 14 μg per ml; None = 0.85
Description: as §7

[4] = reference antibiotic, amount on disk not stated
[5] = 50 μg applied to 10 mm disk in DMSO
[6] = 60 μg applied to 10 mm disk in DMSO

CC1(C)S[C@@H]2[C@H](NC(=O)[C@H](N)c3ccccc3)C(=O)N2[C@H]1C(=O)O [Ampicillin, reference compound]
Zone of inhibition (mm) against S. aureus (Staphylococcus aureus [1]; [4]): 6.1 mm
Zone of inhibition (mm) against S. epiderm. [2, 4]: 2 mm
Zone of inhibition (mm) against E. faecalis (Enterococcus faecalis; [4]): 5.75 mm

C=C(C)[C@@H]1CC[C@]2(COC(=O)CN)CC[C@]3(C)[C@H](CC[C@@H]4[C@@]5(C)CC[C@H](OC(=O)CN)C(C)(C)[C@@H]5CC[C@]43C)[C@@H]12 [Betulin 3,28-diglycine, Betulin-3,28-diglycine]
Zone of inhibition Escherichia coli (Escherichia coli; 125 ng/ml in water): 0 mm
sensitivity of E. coli (Escherichia coli): sensitive
Active against (Escherichia coli): E. coli
Zone of inhibition Staphylococcus aureus (Staphylococcus aureus [1]; 125 ng/ml in water): 0 mm
Zone of inhibition Bacillus subtilis (Bacillus subtilis; 125 ng/ml in water): 0 mm
active against at least one strain of bacteria in the assays above (bacteria): active against at least one strain of bacteria

C=C(C)C1CCC2(COC(=O)CCC(=O)O)CC[C@@]3(C)C(CCC4[C@@]5(C)CCC(OC(=O)CCC(=O)O)C(C)(C)C5CC[C@]43C)C12 (stereo partly shown) [Betulin 3,28-disuccinate, Betulin-3,28-disuccinate]
Zone of inhibition Escherichia coli (Escherichia coli; 1 mg/ml in DMSO): 0 mm
Zone of inhibition Staphylococcus aureus (Staphylococcus aureus [1]; 1 mg/ml in DMSO): 0 mm
Zone of inhibition Bacillus subtilis (Bacillus subtilis; 1 mg/ml in DMSO): 0 mm
active against at least one strain of bacteria in the assays above (bacteria): active against at least one strain of bacteria

C=C(C)[C@@H]1CC[C@]2(COC(=O)[C@@H](N)C(C)C)CC[C@]3(C)[C@H](CC[C@@H]4[C@@]5(C)CC[C@H](OC(=O)[C@@H](N)C(C)C)C(C)(C)[C@@H]5CC[C@]43C)[C@@H]12 [Betulin-3,28-Di-L-valine ester, Betulin-3,28-di-L-valine]
sensitivity of S. aureus (Staphylococcus aureus [1]; Example 34, 10 mg/ml in DMSO): sensitive
Active against (Staphylococcus aureus [1]): S. aureus
active against at least one strain of bacteria in the assays above (bacteria): active against at least one strain of bacteria

C=C(C)[C@@H]1CC[C@]2(CO)CC[C@]3(C)[C@H](CC[C@@H]4[C@@]5(C)CC[C@H](OC(=O)/C=C/c6ccc(O)c(O)c6)C(C)(C)[C@@H]5CC[C@]43C)[C@@H]12 [Betulin-3-caffeate]
sensitivity of E. coli (Escherichia coli): sensitive
Active against (Escherichia coli): E. coli
active against at least one strain of bacteria in the assays above (bacteria): active against at least one strain of bacteria

C=C(C)C1CCC2(COC(=O)COCC(=O)O)CCC3(C)C(CCC4C5(C)CCC(O)C(C)(C)C5CCC43C)C12 (stereo not shown) [Betulin-28-diglycolate]
sensitivity of E. coli (Escherichia coli): sensitive
Active against (Escherichia coli): E. coli
active against at least one strain of bacteria in the assays above (bacteria): active against at least one strain of bacteria

O=C(N[C@H](CO)[C@H](O)c1ccc([N+](=O)[O-])cc1)C(Cl)Cl [Chloramphenicol, reference compound]
Zone of inhibition (mm) against S. aureus (Staphylococcus aureus [1]; [4]): 2.6 mm
Zone of inhibition (mm) against S. epiderm. [2, 4]: 0.5 mm
Zone of inhibition (mm) against E. faecalis (Enterococcus faecalis; [4]): 1.25 mm

C=C(C)[C@@H]1CC[C@]2(C)CC[C@]3(C)[C@H](CC[C@@H]4[C@@]5(C)CCC(=NO)C(C)(C)[C@@H]5CC[C@]43C)[C@@H]12 [Lupenon oxime, Lupenon-3-oxime]
Zone of inhibition (mm) against S. aureus (Staphylococcus aureus [1]; [5]): 0.4 mm
Active against (Staphylococcus aureus [1]): S. aureus,
Zone of inhibition (mm) against S. epiderm. [2, 5]: 0 mm
Zone of inhibition (mm) against E. faecalis (Enterococcus faecalis; [5]): 0.6 mm
Active against (Enterococcus faecalis): E. faecalis
Optical Density of S. epiderm (Staphylococcus epidermis): 0.06
Optical Density of S. aureus (Staphylococcus aureus [3]): 0.06
Optical Density of E. faecalis (Enterococcus faecilis): 0.45
active against at least one strain of bacteria in the assays above (bacteria): active against at least one strain of bacteria

C=C(C)[C@@H]1CC[C@]2(C)CC[C@]3(C)[C@H](CC[C@@H]4[C@@]5(C)C=C(O)C(=O)C(C)(C)[C@@H]5CC[C@]43C)[C@@H]12 [Lupenon-1,2-ene-2-ol]
Zone of inhibition (mm) against S. aureus (Staphylococcus aureus [1]; [5]): 0.85 mm
Active against (Staphylococcus aureus [1]): S. aureus,
Zone of inhibition (mm) against S. epiderm. [2, 5]: 2.65 mm
Active against ([2]; Table 1 summary, S. epidermidis): S. epidermidis,
Zone of inhibition (mm) against E. faecalis (Enterococcus faecalis; [5]): 0.6 mm
Active against (Enterococcus faecalis): E. faecalis
Optical Density of S. epiderm (Staphylococcus epidermis): 0.006
Optical Density of S. aureus (Staphylococcus aureus [3]): 0.04
Optical Density of E. faecalis (Enterococcus faecilis): 0.01
overall activity in Example 35 (bacteria): most active compound against almost all the bacteria
active against at least one strain of bacteria in the assays above (bacteria): active against at least one strain of bacteria

C=C(C)[C@@H]1CC[C@]2(C)CC[C@]3(C)[C@H](CC[C@@H]4[C@@]5(C)CCC(=O)C(C)(C)[C@@H]5CC[C@]43C)[C@@H]12 [Lupenone]
Zone of inhibition (mm) against S. aureus (Staphylococcus aureus [1]; [5]): 1.25 mm
Active against (Staphylococcus aureus [1]): S. aureus,
Zone of inhibition (mm) against S. epiderm. [2, 5]: 1 mm
Zone of inhibition (mm) against E. faecalis (Enterococcus faecalis; [5]): 0.5 mm
Active against (Enterococcus faecalis): E. faecalis
Optical Density of S. epiderm (Staphylococcus epidermis): 0.03
Optical Density of S. aureus (Staphylococcus aureus [3]): 0.04
Optical Density of E. faecalis (Enterococcus faecilis): 0.04
overall activity in Example 35 (bacteria): excellent activity
active against at least one strain of bacteria in the assays above (bacteria): active against at least one strain of bacteria

C=C(C)C1CCC2(C)CCC3(C)C(CCC4C5(C)CCC(OC(=O)CC(C)(C)C(=O)O)C(C)(C)C5CCC43C)C12 (stereo not shown) [Lupeol-3-(3′,3′-dimethyl)succinate]
Zone of inhibition (mm) against S. aureus (Staphylococcus aureus [1]; [6]): 0.5 mm
Active against (Staphylococcus aureus [1]): S. aureus
Zone of inhibition (mm) against S. epiderm. [2, 6]: 0 mm
Zone of inhibition (mm) against E. faecalis (Enterococcus faecalis; [6]): 0 mm
Optical Density of S. epiderm (Staphylococcus epidermis): 0.06
Optical Density of S. aureus (Staphylococcus aureus [3]): 0.06
Optical Density of E. faecalis (Enterococcus faecilis): 0.07
active against at least one strain of bacteria in the assays above (bacteria): active against at least one strain of bacteria

[H]/N=C(/N)N[C@H]1[C@H](O)[C@@H](O)[C@H](O[C@@H]2O[C@@H](C)[C@](O)(C=O)[C@H]2O[C@@H]2O[C@@H](CO)[C@H](O)[C@@H](O)[C@@H]2NC)[C@@H](N/C(N)=N\[H])[C@@H]1O [Streptomycin, reference compound]
zone of inhibition at 10 µg/disc (Escherichia coli; Escherichia coli, control antibiotic, 10 mcg): 20 mm
Zone of inhibition (mm) against S. aureus (Staphylococcus aureus [1]; [4]): 1.25 mm
zone of inhibition at 10 µg/disc (Staphylococcus aureus [1]; Staphylococcus aureus, control antibiotic, 10 mcg): 15 mm
amount applied to the disk required for inhibition of S. aureus (Staphylococcus aureus [1]; disk diffusion assay, laboratory strain (not methicillin resistant)): 10 µg
zone of inhibition at 10 µg/disc (Bacillus subtilis; Bacillus subtilis, control antibiotic, 10 mcg): 24 mm
Zone of inhibition (mm) against S. epiderm. [2, 4]: 0 mm
Zone of inhibition (mm) against E. faecalis (Enterococcus faecalis; [4]): 0 mm

Betulin 3,28-maleate
Zone of inhibition Escherichia coli (Escherichia coli; 20 mg/ml in DMSO): 0 mm
Zone of inhibition Staphylococcus aureus (Staphylococcus aureus [1]; 20 mg/ml in DMSO): 0 mm
Zone of inhibition Bacillus subtilis (Bacillus subtilis; 20 mg/ml in DMSO): 0 mm

Betulin dianiline ester
Zone of inhibition Escherichia coli (Escherichia coli; 125 ng/ml in water): 0 mm
Zone of inhibition Staphylococcus aureus (Staphylococcus aureus [1]; 125 ng/ml in water): 0 mm
Zone of inhibition Bacillus subtilis (Bacillus subtilis; 125 ng/ml in water): 0 mm

Betulin diglycolate
Zone of inhibition Escherichia coli (Escherichia coli; 125 ng/ml in water): 10.0 mm
Zone of inhibition Staphylococcus aureus (Staphylococcus aureus [1]; 125 ng/ml in water): 0 mm
Zone of inhibition Bacillus subtilis (Bacillus subtilis; 125 ng/ml in water): 0 mm

Gentamicin [reference compound]
Zone of inhibition (mm) against S. aureus (Staphylococcus aureus [1]; [4]): 0.1 mm
Zone of inhibition (mm) against S. epiderm. [2, 4]: 0 mm
Zone of inhibition (mm) against E. faecalis (Enterococcus faecalis; [4]): 0 mm

Hederine hydrate
Zone of inhibition Escherichia coli (Escherichia coli; 0.5 ng/ml in water): 0 mm
Zone of inhibition Staphylococcus aureus (Staphylococcus aureus [1]; 0.5 ng/ml in water): 0 mm
Zone of inhibition Bacillus subtilis (Bacillus subtilis; 0.5 ng/ml in water): 0 mm

Poly (ethylene glycol) bis (carboxymethyl) ester
Zone of inhibition Escherichia coli (Escherichia coli; 125 ng/ml in water): 0 mm
Zone of inhibition Staphylococcus aureus (Staphylococcus aureus [1]; 125 ng/ml in water): 0 mm
Zone of inhibition Bacillus subtilis (Bacillus subtilis; 125 ng/ml in water): 0 mm
